For orientation: melting point means the temperature, or range, at which the solid turns liquid.

This is an account of results in patent US7998989B2, “2-Imino-1,3-thiazoline-based compounds and T-type calcium channel inhibitors containing the same” (Korea Institute of Science and Technology, priority 2007, dated 2011).

Series [1] deals with T1, α1G T-type calcium channel (Homo sapiens, UniProt O43497).
T1 construct: host or cells: HEK293
The experiment in a line: Assay for % inhibiting activity against T-type calcium channel using FDSS6000 (fluo-3 calcium imaging, KCl activation). The format is cell-based. To be noted: HEK293, 10 μM; HEK293 cells stably expressing α1G T-type calcium channel and Kir2.1; compounds of the examples; read-out: FDSS (% inhibition)/10uM. An outline of the steps:
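HEK293 cells stably expressing α1G and Kir2.1 loaded with 5 μM fluo-3/AM, then in HEPES buffer (pH 7.4) with 10 mM CaCl2. Compound applied 75 s before 75 mM KCl; intracellular Ca2+ read as […] area, % inhibition relative to untreated control.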

T1 sequence (O43497 whole entry): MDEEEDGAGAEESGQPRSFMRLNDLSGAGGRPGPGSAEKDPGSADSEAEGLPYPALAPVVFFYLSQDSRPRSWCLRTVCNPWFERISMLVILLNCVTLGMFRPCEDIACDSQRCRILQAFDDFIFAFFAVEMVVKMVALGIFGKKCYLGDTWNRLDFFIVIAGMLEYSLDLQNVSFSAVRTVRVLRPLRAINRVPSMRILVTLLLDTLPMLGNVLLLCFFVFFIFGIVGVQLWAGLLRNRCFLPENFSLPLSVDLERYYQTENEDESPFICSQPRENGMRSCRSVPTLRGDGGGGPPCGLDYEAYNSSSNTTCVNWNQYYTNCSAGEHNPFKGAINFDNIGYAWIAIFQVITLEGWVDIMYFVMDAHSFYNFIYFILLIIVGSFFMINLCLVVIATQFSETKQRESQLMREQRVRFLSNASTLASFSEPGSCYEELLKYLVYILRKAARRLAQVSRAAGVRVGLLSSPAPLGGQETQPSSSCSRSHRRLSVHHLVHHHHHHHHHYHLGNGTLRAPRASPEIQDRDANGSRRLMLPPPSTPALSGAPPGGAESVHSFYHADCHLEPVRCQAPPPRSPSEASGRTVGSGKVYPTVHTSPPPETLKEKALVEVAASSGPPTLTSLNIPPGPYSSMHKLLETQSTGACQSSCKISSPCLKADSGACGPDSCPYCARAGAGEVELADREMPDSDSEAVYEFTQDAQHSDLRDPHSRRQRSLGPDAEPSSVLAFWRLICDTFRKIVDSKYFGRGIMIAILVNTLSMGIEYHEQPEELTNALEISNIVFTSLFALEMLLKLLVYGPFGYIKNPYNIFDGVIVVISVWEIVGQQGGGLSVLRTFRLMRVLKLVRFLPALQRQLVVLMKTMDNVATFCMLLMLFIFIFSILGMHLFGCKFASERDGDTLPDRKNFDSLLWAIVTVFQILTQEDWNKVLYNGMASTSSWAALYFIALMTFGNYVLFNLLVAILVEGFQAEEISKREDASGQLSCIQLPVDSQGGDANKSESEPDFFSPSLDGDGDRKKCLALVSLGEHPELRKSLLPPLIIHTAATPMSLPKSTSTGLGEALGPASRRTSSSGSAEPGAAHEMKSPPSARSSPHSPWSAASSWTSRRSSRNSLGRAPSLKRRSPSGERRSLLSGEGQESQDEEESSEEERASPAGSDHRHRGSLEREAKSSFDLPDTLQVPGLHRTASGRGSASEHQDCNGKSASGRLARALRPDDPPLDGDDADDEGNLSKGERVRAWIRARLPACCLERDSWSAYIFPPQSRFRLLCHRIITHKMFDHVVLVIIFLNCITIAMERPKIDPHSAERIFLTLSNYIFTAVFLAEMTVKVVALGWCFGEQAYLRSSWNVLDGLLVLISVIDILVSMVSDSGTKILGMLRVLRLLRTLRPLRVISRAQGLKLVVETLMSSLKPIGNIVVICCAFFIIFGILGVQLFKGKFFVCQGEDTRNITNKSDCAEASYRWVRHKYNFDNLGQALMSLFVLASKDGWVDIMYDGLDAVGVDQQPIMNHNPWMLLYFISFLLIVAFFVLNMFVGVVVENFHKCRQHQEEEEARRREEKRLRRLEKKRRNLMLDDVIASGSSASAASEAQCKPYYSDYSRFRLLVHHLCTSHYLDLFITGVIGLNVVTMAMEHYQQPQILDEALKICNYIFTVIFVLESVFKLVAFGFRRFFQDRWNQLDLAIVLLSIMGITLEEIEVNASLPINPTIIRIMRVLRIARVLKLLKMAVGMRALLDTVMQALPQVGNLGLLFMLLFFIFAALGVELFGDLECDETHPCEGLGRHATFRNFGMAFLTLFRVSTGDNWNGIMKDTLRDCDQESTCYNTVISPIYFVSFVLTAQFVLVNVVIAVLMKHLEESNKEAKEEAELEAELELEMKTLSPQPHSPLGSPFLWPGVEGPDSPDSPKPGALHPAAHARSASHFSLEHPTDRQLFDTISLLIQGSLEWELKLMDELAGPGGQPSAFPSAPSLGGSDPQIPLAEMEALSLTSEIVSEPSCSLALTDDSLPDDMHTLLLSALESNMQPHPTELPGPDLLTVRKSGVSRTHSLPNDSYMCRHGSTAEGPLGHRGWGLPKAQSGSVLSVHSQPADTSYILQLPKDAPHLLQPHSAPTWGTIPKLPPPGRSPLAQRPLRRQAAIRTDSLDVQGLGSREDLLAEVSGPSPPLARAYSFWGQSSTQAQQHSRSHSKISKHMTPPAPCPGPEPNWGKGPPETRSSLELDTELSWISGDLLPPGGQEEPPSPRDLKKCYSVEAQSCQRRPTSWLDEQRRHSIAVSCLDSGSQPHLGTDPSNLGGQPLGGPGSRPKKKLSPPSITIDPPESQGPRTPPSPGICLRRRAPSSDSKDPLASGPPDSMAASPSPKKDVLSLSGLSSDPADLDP

With `CN1C(=NC2CCCC2)SCC1CC(=O)NCc1ccc(Cl)cc1.Cl` (stereo not shown) [KHG24157, (2-cyclopentylimino-3-methyl-1,3-thiazolidine-4-yl)-N-(4-chlorobenzyl)-acetamide hydrochloride], the melting point lay in the range of 180 to 182 °C. The inhibition at 10 µM in series [1] is 36.7%.
The like results for `CN1C(=NCCc2ccccc2)SCC1CC(=O)Nc1cc(C(F)(F)F)cc(C(F)(F)F)c1.Cl` (stereo not shown) [KHG24216, (2-phenethylimino-3-methyl-1,3-thiazolidine-4-yl)-N-(3,5-ditrifluoromethylphenyl)-acetamide hydrochloride] were, in that order, 221.3 °C and 36%.
The like results for `CN1C(=NCC2CCCCC2)SCC1CC(=O)Nc1cc(C(F)(F)F)cc(C(F)(F)F)c1.Cl` (stereo not shown) [KHG24218, (2-cyclohexylmethylimino-3-methyl-1,3-thiazolidine-4-yl)-N-(3,5-ditrifluoromethylphenyl)-acetamide hydrochloride] were, in that order, 119.6 °C and 52.8%.
The like results for `CC(C)c1ccc(NC(=O)CC2CSC(=NCCc3ccccc3)N2C)cc1.Cl` (stereo not shown) [KHG24220, (2-phenethylimino-3-methyl-1,3-thiazolidine-4-yl)-N-(4-isopropylphenyl)-acetamide hydrochloride] were, in that order, 225 °C and 40.8%.
Molecule `CC(C)c1ccc(NC(=O)CC2CSC(=NCC3CCCCC3)N2C)cc1.Cl` (stereo not shown) [KHG24222, (2-cyclohexylmethylimino-3-methyl-1,3-thiazolidine-4-yl)-N-(4-isopropylphenyl)-acetamide hydrochloride] yielded a melting point of 250.7 °C. Besides, the inhibition at 10 µM in series [1] was determined as 34.8%.
The like results for `CN1C(=NCCc2ccccc2)SCC1CC(=O)Nc1ccc(Oc2ccccc2)cc1.Cl` (stereo not shown) [KHG24224, (2-phenethylimino-3-methyl-1,3-thiazolidine-4-yl)-N-(4-phenoxyphenyl)-acetamide hydrochloride] were, in that order, 225.5 °C and 32%.
`CN1C(=NCCc2ccccc2)SCC1CC(=O)Nc1ccc(Cl)cc1.Cl` (stereo not shown) [KHG24228, (2-phenethylimino-3-methyl-1,3-thiazolidine-4-yl)-N-(4-chlorophenyl)-acetamide hydrochloride] had a melting point of 226.7 °C. For the same molecule, the inhibition at 10 µM in series [1] was found to be 48.6%.
For `CN1C(=NCC2CCCCC2)SCC1CC(=O)Nc1ccc(Cl)cc1.Cl` (stereo not shown) [KHG24230, (2-cyclohexylmethylimino-3-methyl-1,3-thiazolidine-4-yl)-N-(4-chlorophenyl)-acetamide hydrochloride], in that order: 177.1 °C and 33%.
For `CN1C(=NCCc2ccccc2)SCC1CC(=O)Nc1cc([N+](=O)[O-])ccc1F.Cl` (stereo not shown) [KHG24232, (2-phenethylimino-3-methyl-1,3-thiazolidine-4-yl)-N-(2-fluoro-5-nitrophenyl)-acetamide hydrochloride], in that order: 196.4 °C and 33.7%.
The molecule `CN1C(=NCC2CCCCC2)SCC1CC(=O)Nc1cc([N+](=O)[O-])ccc1F.Cl` (stereo not shown) [KHG24234, (2-cyclohexylmethylimino-3-methyl-1,3-thiazolidine-4-yl)-N-(2-fluoro-5-nitrophenyl)-acetamide hydrochloride] returned a melting point of 225 °C. Moreover, in series [1], the inhibition at 10 µM was 45.4%.
The like results for `CCN1C(=NC2CCCCC2)SCC1CC(=O)Nc1cc(C(F)(F)F)cc(C(F)(F)F)c1.Cl` (stereo not shown) [KHG24261, [2-cyclohexylimino-3-ethyl-1,3-thiazolidine-4-yl]-N-(3,5-ditrifluoromethylphenyl)-acetamide hydrochloride] were, in that order, 226.4 °C and 65%.
The like results for `CCCCN1C(=NC2CCCCC2)SCC1CC(=O)Nc1ccc(Cl)cc1.Cl` (stereo not shown) [KHG24262, [2-cyclohexylimino-3-(n-butyl)-1,3-thiazolidine-4-yl]-N-(4-chlorophenyl)-acetamide hydrochloride] were, in that order, 194.3 °C and 53%.
`CCCCN1C(=NC2CCCCC2)SCC1CC(=O)Nc1ccc(Br)cc1.Cl` (stereo not shown) [KHG24263, [2-cyclohexylimino-3-(n-butyl)-1,3-thiazolidine-4-yl]-N-(4-bromophenyl)-acetamide hydrochloride]: the melting point turned out to be 215.2 °C. The inhibition at 10 µM in series [1] came out at 52.1%.
For `Cl.O=C(CC1CSC(=NC2CCCCC2)N1C1CC1)Nc1cc(C(F)(F)F)cc(C(F)(F)F)c1` (stereo not shown) [KHG24267, [2-cyclohexylimino-3-cyclopropyl-1,3-thiazolidine-4-yl]-N-(3,5-ditrifluoromethylphenyl)-acetamide hydrochloride], in that order: 197.3 °C and 71%.
For `Cl.O=C(CC1CSC(=NC2CCCCC2)N1C1CC1)Nc1ccc(C(F)(F)F)cc1` (stereo not shown) [KHG24268, [2-cyclohexylimino-3-cyclopropyl-1,3-thiazolidine-4-yl]-N-(4-trifluoromethylphenyl)-acetamide hydrochloride], in that order: 240.8 °C and 58.7%.
As for `CCCCc1ccc(NC(=O)CC2CSC(=NC3CCCCC3)N2C2CC2)cc1.Cl` (stereo not shown) [KHG24270, [2-cyclohexylimino-3-cyclopropyl-1,3-thiazolidine-4-yl]-N-(4-n-butylphenyl)-acetamide hydrochloride], the melting point stood at 195.6 °C. For the same molecule, in series [1], the inhibition at 10 µM was 62.6%.
For `Cl.O=C(CC1CSC(=NC2CCCCC2)N1C1CC1)Nc1cc(Cl)ccc1F` (stereo not shown) [KHG24271, [2-cyclohexylimino-3-cyclopropyl-1,3-thiazolidine-4-yl]-N-(5-chloro-2-fluorophenyl)-acetamide hydrochloride], in that order: 183.7 °C and 37.8%.
For `CCc1ccc(NC(=O)CC2CSC(=NC3CCCCC3)N2C2CC2)cc1.Cl` (stereo not shown) [KHG24272, [2-cyclohexylimino-3-cyclopropyl-1,3-thiazolidine-4-yl]-N-(4-ethylphenyl)-acetamide hydrochloride], in that order: 194.2 °C and 37.6%.
The like results for `Cl.O=C(CC1CSC(=NC2CCCCC2)N1C1CC1)Nc1ccc(Br)cc1` (stereo not shown) [KHG24273, [2-cyclohexylimino-3-cyclopropyl-1,3-thiazolidine-4-yl]-N-(4-bromophenyl)-acetamide hydrochloride] were, in that order, 188.9 °C and 48.5%.
Molecule `CCN1C(=NC2CCCCC2)SCC1CC(=O)Nc1ccc(Oc2ccccc2)cc1.Cl` (stereo not shown) [KHG24276, [2-cyclohexylimino-3-ethyl-1,3-thiazolidine-4-yl]-N-(4-phenoxyphenyl)-acetamide hydrochloride] showed a melting point of 160.3 °C. For the same molecule, in series [1], the inhibition at 10 µM worked out at 42.8%.
For `CCCCc1ccc(NC(=O)CC2CSC(=NC3CCCCC3)N2CC)cc1.Cl` (stereo not shown) [KHG24277, [2-cyclohexylimino-3-ethyl-1,3-thiazolidine-4-yl]-N-(4-n-butylphenyl)-acetamide hydrochloride], in that order: 158.4 °C and 61.1%.
Molecule `CCN1C(=NC2CCCCC2)SCC1CC(=O)Nc1cc([N+](=O)[O-])ccc1F.Cl` (stereo not shown) [KHG24278, [2-cyclohexylimino-3-ethyl-1,3-thiazolidine-4-yl]-N-(2-fluoro-5-nitrophenyl)-acetamide hydrochloride] returned a melting point of 177 °C. Further, the inhibition at 10 µM in series [1] stood at 53.8%.
In the case of `CCN1C(=NC2CCCCC2)SCC1CC(=O)Nc1ccc(C)cc1.Cl` (stereo not shown) [KHG24279, [2-cyclohexylimino-3-ethyl-1,3-thiazolidine-4-yl]-N-(4-methylphenyl)-acetamide hydrochloride], the melting point came to 211.9 °C. Besides, in series [1], the inhibition at 10 µM was 44.1%.
The like results for `CCN1C(=NC2CCCCC2)SCC1CC(=O)Nc1ccc(C(F)(F)F)cc1.Cl` (stereo not shown) [KHG24280, [2-cyclohexylimino-3-ethyl-1,3-thiazolidine-4-yl]-N-(4-trifluoromethylphenyl)-acetamide hydrochloride] were, in that order, 191 °C and 54%.
For `CCCCN1C(=NC2CCCCC2)SCC1CC(=O)Nc1ccc(Oc2ccccc2)cc1.Cl` (stereo not shown) [KHG24281, [2-cyclohexylimino-3-(n-butyl)-1,3-thiazolidine-4-yl]-N-(4-phenoxyphenyl)-acetamide hydrochloride], in that order: 213.3 °C and 31.4%.
As for `CCCCc1ccc(NC(=O)CC2CSC(=NC3CCCCC3)N2CCCC)cc1.Cl` (stereo not shown) [KHG24282, [2-cyclohexylimino-3-(n-butyl)-1,3-thiazolidine-4-yl]-N-(4-n-butylphenyl)-acetamide hydrochloride], the melting point came out at 209.1 °C. Also, the inhibition at 10 µM in series [1] turned out to be 43.6%.
For `CCCCN1C(=NC2CCCCC2)SCC1CC(=O)Nc1ccc(C(C)C)cc1.Cl` (stereo not shown) [KHG24283, [2-cyclohexylimino-3-(n-butyl)-1,3-thiazolidine-4-yl]-N-(4-isopropylphenyl)-acetamide hydrochloride], in that order: 215.6 °C and 51.2%.
As for `CCCCN1C(=NC2CCCCC2)SCC1CC(=O)Nc1ccc(F)cc1.Cl` (stereo not shown) [KHG24284, [2-cyclohexylimino-3-(n-butyl)-1,3-thiazolidine-4-yl]-N-(4-fluorophenyl)-acetamide hydrochloride], the melting point is 203.5 °C. The inhibition at 10 µM in series [1] is 44.6%.
`CCCCN1C(=NC2CCCCC2)SCC1CC(=O)Nc1ccc(C)cc1.Cl` (stereo not shown) [KHG24285, [2-cyclohexylimino-3-(n-butyl)-1,3-thiazolidine-4-yl]-N-(4-methylphenyl)-acetamide hydrochloride]: the melting point stood at 183.4 °C. Further, the inhibition at 10 µM in series [1] turned out to be 46%.
